# Data taken from ChEMBL document CHEMBL3507680, “University of Dundee, Gates Library screen for HepG2 cell viability”.
# Test: Human HepG2 cell viability assay in 384 well format
# Type: toxicity, cell-based
# Parameters: dose 125 nL, time 70.5 hour; cytotoxicity at 70.5 h: concentration not given beside the values
# Conditions: HepG2 cells, read-out: Inhibition
row,Structure (SMILES),cytotoxicity at 70.5 h
1,O=C(c1cccnc1)N1CCCC2(COCCN(c3ccccc3)C2)C1 (stereo not given),-16%
2,O=C(NC1CC1)N1CC[C@H](OCC2CC2)[C@@H]1Cc1cccnc1,1.68%
3,CSCCC(=O)N[C@H]1CC[C@H](Nc2nccc(-c3ccncc3)n2)C1,23.8%
4,CNC(=O)[C@@H]1C[C@H](N)CN1Cc1cc2cc(C)cc(C)c2[nH]c1=O,-13.7%
5,COc1ccccc1OCc1cc(C(=O)N2CCC(C(C)O)CC2)n[nH]1 (stereo not given),-5.66%
6,CCc1c(C(=O)NC2CCS(=O)(=O)C2)cnn1-c1ccc(C)cc1 (stereo not given),-6.41%
7,O=c1[nH]c2c(c(=O)n1C1CCCCC1)CCC2Nc1ccc(Cl)cc1 (stereo not given),-12.5%
8,Cc1cc(NC(=O)CCN2CCn3c(C)nnc3C2)no1,-8.82%
9,CCc1ccc(C(=O)N2CCC(O)(CN3CCOCC3)C(C)(C)C2)[nH]1 (stereo not given),-9.84%
10,CC(=O)N1C[C@@H](c2ccsc2)[C@@H]2CN(Cc3cccc(Cl)c3)CC[C@@H]21,8.95%
11,CC(C)CN1CCC(C(=O)Nc2cc(C(F)(F)F)c[nH]c2=O)CC1,-6.4%
12,c1csc(-c2noc(C3CCCOC3)n2)c1 (stereo not given),-2.62%
13,Cc1cscc1C(=O)Nc1cc(CSCCO)ccn1,-3.95%
14,CCCN(C)C(=O)c1cc(S(=O)(=O)NCC)ccc1C,-1.03%
15,CN(Cc1cnn(C)c1)C(=O)NC1CCS(=O)(=O)C1 (stereo not given),-6.09%
16,CCn1ncc2c1CCCC2NCc1cccc2c1OCCCO2 (stereo not given),-0.304%
17,Cn1cc(CN2CCCC23CCN(C(=O)c2cccs2)CC3)cn1,-11.6%
18,COc1ccc(-c2ccc(C(=O)NS(C)(=O)=O)c(F)c2)c(F)c1,-6.13%
19,CCOCC(O)CN1CCN(C(=O)c2ccnc(N(C)C)c2)CC1 (stereo not given),-6.8%
20,O=C(N[C@]12CC1CN(C(=O)c1ccco1)C2)c1cccc(F)c1 (stereo not given in full),13.8%
21,Cn1cc(NS(=O)(=O)CCOc2ccc(F)cc2)cn1,-4.23%
22,Cc1cc(=O)c(C(=O)N(C)Cc2ccc(Cl)c(F)c2)c[nH]1,-1.6%

row,Structure (SMILES),cytotoxicity at 70.5 h
1,O=C(NC1CCCCC1)N1CCn2c(nnc2C2CCCN2)C1 (stereo not given),-12.5%
2,O=C(N[C@@H]1CCC[C@@H](N2CCCC2)[C@@H]1O)c1cc2ccccc2[nH]1,-8.28%
3,COCCN1CCO[C@@H]2CN(C(=O)Cc3ccc(F)cc3)CC[C@@H]2C1,4.68%
4,c1ccc([C@@H]2CN(Cc3cccnc3)C[C@H]2c2cc[nH]n2)cc1,-7.07%
5,CC1(c2ccccc2)CCCN(C(=O)c2ccn3nnnc3c2)C1 (stereo not given),-0.523%
6,c1cnn(-c2ccc(CCNC3CCN(C4CC4)C3)cc2)c1 (stereo not given),0.821%
7,CCC(CC)C(=O)N1CCN(Cc2cc(=O)c3ccccc3[nH]2)CC1,7.24%
8,c1cncc(-c2ccc3c(c2)CCC32CCN(Cc3ccco3)CC2)c1,-0.391%
9,CC(=O)N1CCCCCC1C1CCN(Cc2nnc(C(C)(C)C)o2)CC1 (stereo not given),-5.64%
10,Cc1cccc(CN2CCC3(CCN(c4cccnc4)C3=O)C2)n1 (stereo not given),2.95%
11,CC(C)c1noc(-c2cccc(OCC(N)=O)c2)n1,-5.07%
12,O=C(c1ccc(-n2cccn2)nc1)N1CCC(c2ccc(O)cc2)CC1,-5.83%
13,O=C(CCSc1ccccc1)NCCn1nc2ccccn2c1=O,-8.89%
14,CCc1nc(-c2noc3ccc(C(=O)N(C)CCOC)cc23)co1,-12.2%
15,CC(Cn1cccn1)NCCS(=O)(=O)c1ccc(Cl)cc1 (stereo not given),-9.68%
16,N#Cc1ccccc1OCCN1CCCCC1C(=O)N1CCOCC1 (stereo not given),7.77%
17,Cc1nnc(-c2ccc(C(=O)Nc3ccnc(N(C)C)n3)cc2)o1,4.63%
18,c1cc(-c2nc(CN3CCn4c(nnc4C4CC4)C3)cs2)cs1,-25.2%
19,O=C(C1CC=CC1)N1CCC2(CCN(Cc3ccccn3)C2=O)C1 (stereo not given),5.7%
20,C[C@@H]1CN(CCOc2ccc(F)cc2)CC[C@@]1(O)C1CCOCC1,-2.42%
21,CCCc1noc(CN2CCC(c3ccnn3CCO)CC2)n1,-0.994%
22,CC(=O)c1cc(CN2C[C@H]3CC[C@@H]2CN(S(=O)(=O)N(C)C)C3)cs1,12.5%

row,Structure (SMILES),cytotoxicity at 70.5 h
1,Cn1cc(C2(C)CN(C(=O)COc3ccccc3F)CCO2)cn1 (stereo not given),-4.09%
2,O=C(Cn1cc(C2CC2)nn1)N(Cc1cccs1)CC1CCCO1 (stereo not given),10.4%
3,Nc1ncc(-c2ccc(F)cc2)c(C2CCCNC2)n1 (stereo not given),24.3%
4,O=C(O)C1c2nc[nH]c2CCN1Cc1cc(-c2ccccc2)no1 (stereo not given),-4.98%
5,O=C(O)[C@]12CCCN(Cc3ccsc3)C[C@H]1CN(c1ccccn1)C2,13.5%
6,CC(C(=O)NCc1ccc(N2CCNC(=O)C2)cc1)c1cccs1 (stereo not given),-4.67%
7,Cc1ncc(CNC(=O)NC2CCN(C3CCCC3)CC2)s1,-6.29%
8,O=C1CCC2(CCCN(C(=O)c3ncc[nH]3)C2)CN1CCc1c[nH]cn1 (stereo not given),13.6%
9,CCn1c(CN(C)CC(F)(F)F)nc2c(F)cccc21,-0.949%
10,CC(C)CSCCCNC(=O)C1CCC1,-2.26%
11,CCOc1ccc(NC(=O)C2OC(c3cccs3)=NN2C(C)=O)cc1 (stereo not given),11.5%
12,CN(Cc1ccco1)Cc1ccccc1CNC(=O)c1ccc[nH]1,-9.87%
13,COc1ccc([C@@H]2CN(c3cc(OC)nc(N)n3)C[C@H]2N(C)C)cc1,-3.33%
14,O=C(O)[C@H]1CN(Cc2ccccc2)C[C@@H]1C(=O)c1ccccc1,-3.77%
15,COCCn1ccc2cc(NC(=O)COC)ccc21,-3.46%
16,CO[C@@H]1CCN(C(=O)c2cc(C)on2)C[C@@H]1Cc1ccccc1,20.3%
17,Fc1cccc(-c2nnn3c2COC(CNCc2cccs2)C3)c1 (stereo not given),1.1%
18,C=C(C)COc1ccccc1CN1CCCC(C(=O)NCCCO)C1 (stereo not given),-8.32%
19,Cc1ccc(CN(C)C(=O)Cn2nc(-c3ccc(F)cc3)oc2=O)cc1,-7.04%
20,CN1CCN(C(=O)c2cn3ccsc3n2)[C@H]2CS(=O)(=O)C[C@H]21,-11.3%
21,O=C(c1ccc2c(c1)OCO2)N1CCCC(Nc2ccc(F)cc2)C1 (stereo not given),-2.98%
22,COCC1c2nnn(CC3CC3)c2CCN1C(=O)CS(C)(=O)=O (stereo not given),-12.6%

row,Structure (SMILES),cytotoxicity at 70.5 h
1,CC(CN(C)C(=O)c1cn(C)nc1-c1ccc(F)cc1F)C(=O)O (stereo not given),-1.61%
2,CN(C)C(=O)COC[C@]12COC[C@H]1CN(Cc1ccccc1)C2,-2.22%
3,Cc1cccc(-c2noc(CN3CCOC(Cn4cccn4)C3)n2)c1 (stereo not given),-11.5%
4,O=c1[nH]nc2c(S(=O)(=O)N3CCCC3)cccn12,-4.02%
5,COC(C)c1noc(CN2CCCNCC2)n1 (stereo not given),-10%
6,CCCc1cc(C(=O)NCCCC(=O)N2Cc3ccccc3C2)[nH]n1,-6.02%
7,CN(C)Cc1cc(=O)n2c(n1)CN(C(=O)c1ccc[nH]1)CCC2,-2.94%
8,O=C(c1ccoc1)N1CCO[C@@H]2CNC[C@@H]21,-1.42%
9,O=C(CN1CCN(C(=O)c2ccccc2)CC1)Nc1ncc(Br)cc1Br,-1.02%
10,Cc1nccc(-c2cccc(NCC(=O)N3CCCCCCC3)c2)n1,17.3%
11,O=C(Cc1ccsc1)N1C[C@@H]2COC[C@]2(COc2cccnc2)C1,-6.1%
12,CN(C)c1ncccc1CNCc1ccc(N2CCOCC2)cc1,18.9%
13,CC1CC(=O)c2cc(C(=O)N3CCc4ccccc43)c(=O)[nH]c2C1 (stereo not given),-1.11%
14,CCN1C[C@H]2[C@@H](C1)N(C(=O)Cc1ccsc1)CC[C@H]2OC,-7.9%
15,O=C(c1ccsc1)N1CC[C@H]2C[C@@H](c3nnc(C4CC4)o3)O[C@@H]2C1,-12.7%
16,CCn1cc(NC(=O)C2CCN(CC(=O)NC(C)(C)CC)CC2)cn1,-2.19%
17,Cc1csc(C(C#N)C(=O)NCc2ccccc2)n1 (stereo not given),-6.71%
18,Cc1ccc(-n2ccnc2-c2cn(C3CCNCC3)nn2)c(Cl)c1,2.06%
19,CS(=O)(=O)N1CCN(CC(O)COc2ccc(Cl)cc2)CC1 (stereo not given),0.0303%
20,NC(=O)c1cccc(CC2CCN(C(=O)CCCN3CCOCC3)C2)c1 (stereo not given),-4.93%
21,CCC1=N[C@@]2(CC[C@@H]3CN(Cc4ccccc4C)C[C@@H]32)C(=O)N1C,0.166%
22,CN(C)[C@@H]1CCN(C(=O)CC2CC2)[C@H]1Cc1cnn(C)c1,-7.51%

row,Structure (SMILES),cytotoxicity at 70.5 h
1,CN1C(=O)CC(N(C)Cc2nc3ccccc3c(=O)[nH]2)C1=O (stereo not given),23.4%
2,Cc1nn(C)c(C)c1C(=O)N1CCOCC1CC(=O)c1ccco1 (stereo not given),-18.7%
3,CCN(CC)C1CCN(C(=O)NCc2cccc(-n3ccnc3)c2)C1 (stereo not given),-6.04%
4,CCc1cc(NCCc2cnccn2)n2nc(C)c(C)c2n1,-5.77%
5,Cc1ccc(-c2nc(CN3CCOC(Cn4cccn4)C3)no2)cc1 (stereo not given),-4.16%
6,CNc1nc(C2CCCN(C(=O)CNC(C)=O)C2)nc2c1CN(C)CC2 (stereo not given),11.4%
7,CCC(C)CS(=O)(=O)NC(=O)C1CC1 (stereo not given),-5.06%
8,O=C(CNC(=O)C1CCCC1)NCC(O)c1ccc2ccccc2c1 (stereo not given),-0.471%
9,Cc1ccc(S(=O)(=O)N2CCCC(c3n[nH]cc3C(=O)N(C)C)C2)cc1 (stereo not given),9.91%
10,Cc1nc2c(c(NCc3ccccc3)n1)CCN(C(=O)NC(C)C)CC2,30.7%
11,O=C(Cc1ccccc1)NCCNC(=O)c1scnc1Cl,-9.54%
12,CCCc1noc(C[S+]([O-])CC(=O)NCc2ccccc2)n1 (stereo not given),15.8%
13,Cc1nc(Cn2nc(C3CCNCC3)n(Cc3ccccc3)c2=O)no1,6.65%
14,COCCCNC(=O)C1CN(C(=O)c2cnccn2)C1,-15.7%
15,CC(=O)NCCC1CCCCN1C(=O)c1cccc(CCC(C)(C)O)c1 (stereo not given),-6.03%
16,CSc1cccc(CN(C)C(=O)c2cccc(C3CCCNC3)c2)c1 (stereo not given),-2.36%
17,CC(=O)Nc1nc(CN(C)C2CCCN(c3cccnn3)C2)cs1 (stereo not given),-13.5%
18,CCS(=O)(=O)NCCNc1c(C#N)cnc2c(F)cc(F)cc12,-0.0012%
19,O=C(NCCN1CCOCC1)c1ccn(-c2ccc3ccccn23)n1,-1.69%
20,Cc1ccc2c(n1)N(C)CCN(C(=O)C1CC1)C2,-8.52%
21,CC(C)CCNC(=O)C1CCCN1C(=O)Nc1cccc(F)c1 (stereo not given),-6.59%
22,COCCN(CCC#N)S(=O)(=O)c1cc(F)cc(F)c1,3.86%
